Our source for the IC50 values is patent US20240336602A1 (Katholieke Universiteit Leuven, priority 2020, published 2024).

Broadly, the IC50 is the point on the concentration scale where inhibition reaches its midpoint.

Molecules are shown by their SMILES.

This test has as its target T1, mouse TRPM3a2 (mTRPM3) ion channel (Mus musculus, UniProt J9SQF3).
T1 construct: expressed in transfected cells; host or cells: flip-in HEK293
Description: TRPM3 ion channel driven Ca2+ uptake, Fluo-4 AM assay (PS-stimulated, overexpressing flip-in HEK293 cells). The test is classed as cell-based. Particulars: PS (50 μM) stimulated. The gist of the method:
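Flip-in HEK293 cells overexpressing mTRPM3α2, loaded with Fluo-4 AM, were added to wells with compound plus 50 μM pregnenolone sulfate in Ca2+-containing Krebs buffer and read immediately (ex 485/em 535 nm). Percent inhibition was scaled between PS-plus-vehicle and positive-control-inhibitor signals.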

T1 sequence (J9SQF3 1-1709 isoform J9SQF3-12): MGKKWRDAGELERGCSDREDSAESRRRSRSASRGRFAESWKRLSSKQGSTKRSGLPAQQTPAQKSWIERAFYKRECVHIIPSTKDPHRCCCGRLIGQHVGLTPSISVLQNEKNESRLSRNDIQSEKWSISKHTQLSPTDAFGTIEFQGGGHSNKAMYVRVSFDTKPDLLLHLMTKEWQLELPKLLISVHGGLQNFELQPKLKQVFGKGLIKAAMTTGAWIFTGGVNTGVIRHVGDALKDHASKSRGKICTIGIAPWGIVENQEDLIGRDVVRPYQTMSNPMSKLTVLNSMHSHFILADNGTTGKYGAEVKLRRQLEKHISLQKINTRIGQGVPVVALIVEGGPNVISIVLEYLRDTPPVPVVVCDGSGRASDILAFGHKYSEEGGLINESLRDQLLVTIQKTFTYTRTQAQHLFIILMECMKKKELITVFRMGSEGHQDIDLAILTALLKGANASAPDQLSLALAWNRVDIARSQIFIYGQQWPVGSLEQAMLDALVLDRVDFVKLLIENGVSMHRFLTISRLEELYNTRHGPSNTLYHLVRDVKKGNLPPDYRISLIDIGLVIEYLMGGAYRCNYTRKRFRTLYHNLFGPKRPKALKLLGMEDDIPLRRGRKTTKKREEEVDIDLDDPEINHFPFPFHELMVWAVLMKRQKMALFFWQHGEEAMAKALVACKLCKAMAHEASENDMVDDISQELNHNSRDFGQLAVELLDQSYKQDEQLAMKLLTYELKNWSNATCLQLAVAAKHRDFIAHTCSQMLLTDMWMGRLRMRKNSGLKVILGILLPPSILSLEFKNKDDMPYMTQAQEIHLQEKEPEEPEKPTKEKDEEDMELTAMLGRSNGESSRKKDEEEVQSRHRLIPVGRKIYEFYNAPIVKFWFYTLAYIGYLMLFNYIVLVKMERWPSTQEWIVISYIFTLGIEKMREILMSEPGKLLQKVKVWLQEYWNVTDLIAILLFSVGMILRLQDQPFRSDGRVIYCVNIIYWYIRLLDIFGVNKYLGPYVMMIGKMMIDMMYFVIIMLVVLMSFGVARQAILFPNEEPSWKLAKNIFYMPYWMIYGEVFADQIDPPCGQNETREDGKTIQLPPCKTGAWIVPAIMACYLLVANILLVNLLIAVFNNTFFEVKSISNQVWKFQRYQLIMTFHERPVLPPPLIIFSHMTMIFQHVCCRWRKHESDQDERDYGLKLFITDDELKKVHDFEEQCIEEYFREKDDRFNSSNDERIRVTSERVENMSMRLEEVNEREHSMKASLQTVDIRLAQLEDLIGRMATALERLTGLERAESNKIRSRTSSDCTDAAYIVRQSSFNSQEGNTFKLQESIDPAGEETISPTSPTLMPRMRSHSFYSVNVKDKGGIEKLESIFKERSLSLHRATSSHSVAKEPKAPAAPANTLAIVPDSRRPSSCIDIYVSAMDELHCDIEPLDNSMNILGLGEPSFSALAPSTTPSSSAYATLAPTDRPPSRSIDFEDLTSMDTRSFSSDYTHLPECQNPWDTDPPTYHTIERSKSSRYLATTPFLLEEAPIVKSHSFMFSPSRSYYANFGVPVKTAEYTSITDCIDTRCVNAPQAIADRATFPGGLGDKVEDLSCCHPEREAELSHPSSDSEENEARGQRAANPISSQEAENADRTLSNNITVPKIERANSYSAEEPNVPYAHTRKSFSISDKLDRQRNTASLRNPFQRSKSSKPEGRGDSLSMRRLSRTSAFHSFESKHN

For the compound `Cc1ccc(COc2ccc3oc(C)c(C(=O)NC4(CO)CCOCC4)c3c2)cn1` [cpd 622, N-(4-(hydroxymethyl)tetrahydro-2H-pyran-4-yl)-2-methyl-5-((6-methylpyridin-3-yl)methoxy)benzofuran-3-carboxamide], the IC50 (cpds. 600-666) lay in the range of 1 to 20 µM.
Still for that read-out and setting: in the case of `Cc1oc2ccc(OCc3ncccn3)cc2c1C(=O)NC1(CO)CCOCC1` [cpd 626, N-(4-(hydroxymethyl)tetrahydro-2H-pyran-4-yl)-2-methyl-5-(pyrimidin-2-ylmethoxy)benzofuran-3-carboxamide] it was 1 to 20 µM; in that of `Cc1oc2ccc(OCc3ccnc(O)c3)cc2c1C(=O)NC1(CO)CCOCC1` [cpd 628, N-(4-(hydroxymethyl)tetrahydro-2H-pyran-4-yl)-5-((2-hydroxypyridin-4-yl)methoxy)-2-methylbenzofuran-3-carboxamide], 1 to 20 µM; in that of `COc1ccc(COc2ccc3oc(C)c(C(=O)NC4(CO)CCOCC4)c3c2)cn1` [cpd 632, N-(4-(hydroxymethyl)tetrahydro-2H-pyran-4-yl)-5-((6-methoxypyridin-3-yl)methoxy)-2-methylbenzofuran-3-carboxamide], 1 to 20 µM.
On to `Cc1oc2ccc(OCc3ccc4nccn4c3)cc2c1C(=O)NC1(CO)CCOCC1` [cpd 633, N-(4-(hydroxymethyl)tetrahydro-2H-pyran-4-yl)-5-(imidazo[1,2-a]pyridin-6-ylmethoxy)-2-methylbenzofuran-3-carboxamide], for which, where the note is “cpds. 600-666”, the IC50 lay in the range of 1 to 20 µM.
Same read-out and setting: in the case of `Cc1oc2ccc(OCc3cccnc3C(F)(F)F)cc2c1C(=O)N(CCO)C1CCC1` [cpd 659, N-cyclobutyl-N-(2-hydroxyethyl)-2-methyl-5-((2-(trifluoromethyl)pyridin-3-yl)methoxy)benzofuran-3-carboxamide] it was 1 to 20 µM.
As to `Cc1cc(COc2ccc3oc(C)c(C(=O)N[C@@H](CO)C(N)=O)c3c2)on1` [cpd 674], the IC50 (cpds. 667-751) was ≤ 1 µM.
Take `Cc1oc2ccc(OCc3c[nH]nc3C(F)(F)F)cc2c1C(=O)N[C@H](C(N)=O)[C@@H](C)O` [cpd 685, N-((2S,3R)-1-amino-3-hydroxy-1-oxobutan-2-yl)-2-methyl-5-((3-(trifluoromethyl)-1H-pyrazol-4-yl)methoxy)benzofuran-3-carboxamide]: the IC50 (cpds. 667-751) was ≤ 1 µM.
The same measure, in the same setting: to `Cc1oc2ccc(OCc3ncccc3C3CC3)cc2c1C(=O)NC1(CO)CCOCC1` [cpd 705, 5-((3-cyclopropylpyridin-2-yl)methoxy)-N-(4-(hydroxymethyl)tetrahydro-2H-pyran-4-yl)-2-methylbenzofuran-3-carboxamide] belongs 1 to 20 µM.
